Measurements: patent publication US12378250B2, “Tricyclic compound as IRAK4 inhibitor” (KOREA RESEARCH INSTITUTE OF CHEMICAL TECHNOLOGY, priority 2018, dated 2025)

Biological target: T1, IRAK4 enzyme (Homo sapiens, UniProt Q9NWZ3)
T1 sequence (Q9NWZ3 1-460): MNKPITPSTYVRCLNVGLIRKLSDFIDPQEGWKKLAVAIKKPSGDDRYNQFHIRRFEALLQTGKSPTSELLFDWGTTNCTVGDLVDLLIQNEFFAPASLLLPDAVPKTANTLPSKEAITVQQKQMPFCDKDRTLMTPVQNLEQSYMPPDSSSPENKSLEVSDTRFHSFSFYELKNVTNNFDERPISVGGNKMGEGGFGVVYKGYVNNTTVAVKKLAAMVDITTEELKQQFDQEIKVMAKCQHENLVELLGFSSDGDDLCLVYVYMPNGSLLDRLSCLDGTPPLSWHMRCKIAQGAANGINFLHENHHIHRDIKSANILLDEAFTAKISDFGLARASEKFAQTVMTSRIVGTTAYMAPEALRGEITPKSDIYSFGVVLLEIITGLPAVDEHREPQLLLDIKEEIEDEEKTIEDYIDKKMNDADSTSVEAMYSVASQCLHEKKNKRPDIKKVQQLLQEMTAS
Assay: IRAK4 enzyme inhibition degree (bead-based kinase assay, peptide substrate BMKC-2, 100 μM ATP)
Format: biochemical
Conditions: for inhibition at 1 µM: compound 1 μM
Method: 2.5 μl of a compound diluted to 4-fold of a final concentration was put into a 384-well white plate (low volume). 2.5 μl of 0.4 ng/μl IRAK4 enzyme was added thereto, and the resulting mixture was totally reacted for 10 minutes. 5 μl of a mixed liquid of a 6 μM peptide substrate (BMKC-2) and 100 μM ATP was added thereto, the resulting mixture was reacted at room temperature for 60 minutes, then 2.5 μl of 10 mM EDTA was added thereto, and the resulting mixture was reacted again for 10 minutes. 40 nM anti-phospho Thr antibody was aliquoted to 2.5 μl each, 5 μl of a mixed solution of a 160 μl/ml acceptor bead and a donor bead was added thereto, and then the resulting mixture was reacted at room temperature for 60 minutes. Fluorescence signals were measured using a bead experimental apparatus (Fusion alpha-FP Microplate Reader, Perkin Elmer Inc.).
From the detected signal, an activity inhibition rate [% inhibition degree=(the average value of a compound−the average value of a negative control)/(the average value of a positive control−the average value of a negative control)×100] was calculated, and is shown in [Table 1]. Further, a % inhibition degree of the compound at each concentration was obtained, and then a 50% inhibition concentration (IC50 value) was analyzed by a non-linear regression analysis.

IC50	inhibition at 1 µM	Structure (SMILES)
210 nM	86%	Cc1nnc(-c2ccc3[nH]c4ncnc(N[C@H]5CC[C@H](N6CCOCC6)CC5)c4c3c2)[nH]1 [Compound 6bab, 6-(5-methyl-4H-1,2,4-triazol-3-yl)-N-(trans-4-morpholinocyclohexyl)-9H-pyrimido[4,5-b]indole-4-amine]
928 nM	52%	c1nc(N[C@H]2CC[C@H](N3CCOCC3)CC2)c2c(n1)[nH]c1ccc(-c3nnc4n3CCC4)cc12 [Compound 6bad, 6-(6,7-dihydro-5H-pyrrolo[2,1-c][1,2,4]triazol-3-yl)-N-(trans-4-morpholinocyclohexyl)-9H-pyrimido[4,5-b]indole-4-amine]
780 nM	56%	N#Cc1cc(F)cc(-c2ccc3[nH]c4ncnc(N[C@H]5CC[C@H](N6CCOCC6)CC5)c4c3c2)c1 [Compound 6aap, 3-fluoro-5-(4-((trans-4-morpholinocyclohexyl)amino)-9H-pyrimido[4,5-b]indol-6-yl) benzonitrile]
–	< 1%	COC(=O)c1ccc2c(c1)[nH]c1ncnc(Nc3ccc(N4CCOCC4)cc3)c12 [Compound 5db, methyl 4-((4-morpholinophenyl)amino)-9H-pyrimido[4,5-b]indole-7-carboxylate]
1530 nM	34%	Cn1cc(-c2ccc3[nH]c4ncnc(NCCCN5CCOCC5)c4c3c2)cn1 [Compound 6aea, 6-(1-methyl-1H-pyrazol-4-yl)-N-(3-morpholinopropyl)-9H-pyrimido[4,5-b]indole-4-amine]
1050 nM	36%	Cn1cc(-c2ccc3[nH]c4ncnc(NCCN5CCN(C(=O)OC(C)(C)C)CC5)c4c3c2)cn1 [Compound 6afa, tert-butyl 4-(2-((6-(1-methyl-1H-pyrazol-4-yl)-9H-pyrimido[4,5-b]indol-4-yl)amino)ethyl)piperazine-1-carboxylate]
–	9%	CCOC(=O)c1ccc2[nH]c3ncnc(Nc4ccc(OC)cc4)c3c2c1 [Compound 5bc, ethyl 4-((4-methoxyphenyl)amino)-9H-pyrimido[4,5-b]indole-6-carboxylate]
137 nM	78%	c1nc(N[C@H]2CC[C@H](N3CCOCC3)CC2)c2c(n1)[nH]c1ccc(-c3cnn(C4CCNCC4)c3)cc12 [Compound 6aar, N-(trans-4-morpholinocyclohexyl)-6-(1-(piperidin-4-yl)-1H-pyrazol-4-yl)-9H-pyrimido[4,5-b]indole-4-amine]
565 nM	59%	CC(C)(C)OC(=O)N1CCC(n2cc(-c3ccc4[nH]c5ncnc(N[C@H]6CC[C@H](N7CCOCC7)CC6)c5c4c3)cn2)CC1 [Compound 6aaq, tert-butyl 4-(4-(4-((trans-4-morpholinocyclohexyl)amino)-9H-pyrimido[4,5-b]indol-6-yl)-1H-pyrazol-1-yl)piperidine-1-carboxylate]
842 nM	60%	Cn1cnnc1-c1ccc2[nH]c3ncnc(N[C@H]4CC[C@H](N5CCOCC5)CC4)c3c2c1 [Compound 6bac, 6-(4-methyl-4H-1,2,4-triazol-3-yl)-N-(trans-4-morpholinocyclohexyl)-9H-pyrimido[4,5-b]indole-4-amine]
8 nM	94%	Cc1nnc(-c2ccc3[nH]c4ncnc(N[C@H]5CC[C@H](N6CCOCC6)CC5)c4c3c2)o1 [Compound 6bae, 6-(5-methyl-1,3,4-oxadiazol-2-yl)-N-(trans-4-morpholinocyclohexyl)-9H-pyrimido[4,5-b]indole-4-amine]
–	10%	COC(=O)c1ccc2c(c1)[nH]c1nc(-c3cccc([N+](=O)[O-])c3)nc(N[C@H]3CC[C@H](N4CCOCC4)CC3)c12 [Compound 11b, methyl 4-((trans-4-morpholinocyclohexyl)amino)-2-(3-nitrophenyl)-9H-pyrimido[4,5-b]indole-7-carboxylate]
50 nM	79%	CS(=O)(=O)N1CCC(n2cc(-c3ccc4[nH]c5ncnc(N[C@H]6CC[C@H](N7CCOCC7)CC6)c5c4c3)cn2)CC1 [Compound 6aas, 6-(1-(1-(methylsulfonyl)piperidin-4-yl)-1H-pyrazol-4-yl)-N-(trans-4-morpholinocyclohexyl)-9H-pyrimido[4,5-b]indole-4-amine]
861 nM	53%	Cn1cc(-c2ccc3[nH]c4ncnc(NCCN5CCOCC5)c4c3c2)cn1 [Compound 6ada, 6-(1-methyl-1H-pyrazol-4-yl)-N-(2-morpholinoethyl)-9H-pyrimido[4,5-b]indole-4-amine]
63 nM	74%	N#Cc1cncc(-c2ccc3[nH]c4ncnc(N[C@H]5CC[C@H](N6CCOCC6)CC5)c4c3c2)c1 [Compound 6aao, 5-(4-((trans-4-morpholinocyclohexyl)amino)-9H-pyrimido[4,5-b]indol-6-yl) nicotinonitrile]
308 nM	70%	c1nc(N[C@H]2CC[C@H](N3CCOCC3)CC2)c2c(n1)[nH]c1ccc(-c3nnc[nH]3)cc12 [Compound 6baa, N-(trans-4-morpholinocyclohexyl)-6-(4H-1,2,4-triazol-3-yl)-9H-pyrimido[4,5-b]indole-4-amine]
509 nM	70%	O=c1[nH]nc(-c2ccc3[nH]c4ncnc(N[C@H]5CC[C@H](N6CCOCC6)CC5)c4c3c2)[nH]1 [Compound 6baf, 5-(4-((trans-4-morpholinocyclohexyl)amino)-9H-pyrimido[4,5-b]indol-6-yl)-2,4-dihydro-3H-1,2,4-triazole-3-one]
79 nM	91%	Fc1cncc(-c2ccc3[nH]c4ncnc(N[C@H]5CC[C@H](N6CCOCC6)CC5)c4c3n2)c1 [Compound 23a, 6-(5-fluoropyridin-3-yl)-N-(trans-4-morpholinocyclohexyl)-9H-pyrido[2′,3′:4,5]pyrrolo[2,3-d]pyrimidin-4-amine]
1040 nM	41%	Cn1cc(-c2ccc3[nH]c4ncnc(OCCN5CCOCC5)c4c3c2)cn1 [Compound 6aha, 4-(2-((6-(1-methyl-1H-pyrazol-4-yl)-9H-pyrimido[4,5-b]indol-4-yl)oxy)ethyl)morpholine]
